In US20080293801A1, “Solid Amorphous Dispersions of An Mtp Inhibitor For Treatment of Obesity” (PFizer Inc., priority 2003, published 2008):
Where “and” joins values, the source holds several entries; their conditions need not be identical. Equal values may be shown once. Marks after values point to notes of the source that are not given here.

How the values were obtained:
[1] = Solubility of the lowest energy crystalline form of Drug A in water; format: physicochemical; details: lowest energy crystalline form presently known
Description: Drug A is an MTP inhibitor intended for the treatment of obesity. The solubility of the lowest energy crystalline form of Drug A presently known in water is less than 0.6 μg/ml. Drug A is nonionizable, and has a cLog P of about 7.8. These characteristics contribute to its water insoluble nature.

[2] = In vitro dissolution test in model fasted duodenal solution (MFDS); format: physicochemical; details: MTC 500 μg/mL; for AUC / Drug A Concentration: MFDS pH 6.5, 37° C.
Description: Samples of Example 1 and Control C1 were added to respective microcentrifuge tubes in duplicate. For these tests, a sufficient amount of material was added so that the maximum theoretical concentration of drug (MTC) would have been 500 μg/mL, if all of the drug had dissolved. The tubes were placed in a 37° C. temperature-controlled chamber, and 1.8 mL model fasted duodenal solution, or “MFDS” was added to each respective tube. The MFDS consisted of 1.8 mL PBS containing 0.5 wt % sodium taurocholic acid and 1-palmitoyl-2-oleyl-sn-glycero-3-phosphocholine (NaTC/POPC, with a 4/1 weight ratio) at pH 6.5 and adjusted to 290 mOsm/kg with NaCl:KCl (20.4:1 wt/wt). The samples were quickly mixed using a vortex mixer for about 60 seconds. The samples were centrifuged at 13,000 G at 37° C. for 1 minute. The resulting supernatant solution was then sampled and diluted 1:6 (by volume) with methanol and then analyzed by high-performance liquid chromatography (HPLC) using a Phenomenex Luna, phenyl-hexyl 5 μm column with a mobile phase consisting of 70:30 (vol:vol) acetonitrile: water at a flow rate of 1 ml/min. Drug concentration was measured using UV absorbance at 241 nm. The contents of each respective tube were mixed on the vortex mixer and allowed to stand undisturbed at 37° C. until the next sample was taken. […]
The concentrations of drug obtained in these samples were used to determine the maximum dissolved drug concentration at 90 minutes (MDC90) and the area under the dissolved drug concentration versus time curve (AUC90) during the initial ninety minutes.
For each test, dispersions were added to microcentrifuge tubes in duplicate. For these tests, a sufficient amount of material was added so that the maximum theoretical concentration (MTC) would have been 500 μg/mL, if all of the drug had dissolved. The tubes were placed in a 37° C. temperature-controlled chamber, and 1.8 mL PBS containing 0.5 wt % sodium taurocholic acid and 1-palmitoyl-2-oleyl-sn-glycero-3-phosphocholine (NaTC/POPC, with a 4/1 weight ratio) at pH 6.5 and 290 mOsm/kg (model fasted duodenal solution, “MFDS”) was added to each respective tube. The samples were quickly mixed using a vortex mixer for about 60 seconds. The samples were centrifuged at 13,000 G at 37° C. for 1 minute. The resulting supernatant solution was then sampled and diluted 1:6 (by volume) with methanol and then analyzed by HPLC as described above. The contents of each respective tube were mixed on the vortex mixer and allowed to stand undisturbed at 37° C. until the next sample was taken. […]
The concentrations of drug obtained in these samples were used to determine the MDC90 and the AUC90 during the initial ninety minutes.

| SMILES | solubility [1] [µg/mL] | AUC90 ([2]; area under dissolved drug concentration vs time curve, initial 90 minutes, MFDS) | MDC90 ([2]; maximum dissolved drug concentration, initial 90 minutes, MFDS) | AUC ([2]; time 0 min) [µg·min/mL] | Drug A Concentration ([2]; time 0 min) [µg/mL] | AUC ([2]; time 4 min) [µg·min/mL] | Drug A Concentration ([2]; time 4 min) | Drug A Concentration ([2]; time 10 min) | Drug A Concentration ([2]; time 20 min) | AUC ([2]; time 40 min) | Drug A Concentration ([2]; time 40 min) | AUC ([2]; time 90 min) | AUC ([2]; time 1200 min) [µg·min/mL] | Drug A Concentration ([2]; time 1200 min) [µg/mL] |
| --- | --- | --- | --- | --- | --- | --- | --- | --- | --- | --- | --- | --- | --- | --- |
| CN(Cc1ccccc1)C(=O)[C@@H](NC(=O)c1cc2cc(NC(=O)c3ccccc3-c3ccc(C(F)(F)F)cc3)ccc2n1C)c1ccccc1 [Drug A, (S)—N-{2-[benzyl(methyl)amino]-2-oxo-1-phenylethyl}-1-methyl-5-[4′-(trifluoromethyl)[1,1′-biphenyl]-2-carboxamido]-1H-indole-2-carboxamide] | < 0.6 | – | – | – | – | – | – | – | – | – | – | – | – | – |
| CN(Cc1ccccc1)C(=O)[C@@H](NC(=O)c1cc2cc(NC(=O)c3ccccc3-c3ccc(C(F)(F)F)cc3)ccc2n1C)c1ccccc1 [Example C1] | – | 170 µg·min/mL and 200 µg·min/mL | 3.1 µg/mL and 3 µg/mL | 0 | 0 | 0 | 0.0* μg/mL and 0 μg/mL | 2.6 µg/mL and 3 µg/mL | 3.1 µg/mL and 3 µg/mL | 93 µg·min/mL and 100 µg·min/mL | 2.6 µg/mL and 3 µg/mL | 170 µg·min/mL and 200 µg·min/mL | 800 | 0.8 |
